Legend:
[1] = Liquid; for speed of sound / mass density: 101.33 kPa; for speed of sound: Linear variable-path acoustic interferometer; for mass density: Pycnometric method
[2] = xn = mol fraction of the nth substance listed; settings: 308.15 K, 101 kPa, Liquid; for excess molar volume: Direct dilatometry; for speed of sound: Linear variable-path acoustic interferometer
[3] = excess molar enthalpy (molar enthalpy of mixing); xn = mol fraction of the nth substance listed; settings: 308.15 K, 101 kPa, Liquid, Calvet calorimetry

Cc1ccccc1N [2-methylaniline]
[1]
Settings | mass density [kg/m3] | speed of sound [m/s] | vapor or sublimation pressure [kPa]
298.15 K | 994.2 | 1602 | –
308.15 K | – | – | 0.0667

Settings | vapor or sublimation pressure [kPa]
[1], 298.15 K, Closed cell (Static) method | 0.04

Cc1ccccc1N [2-methylaniline] + C1CCOCC1
Settings | excess molar enthalpy [kJ/mol] | excess molar volume [m3/mol] | speed of sound [m/s]
[2], x2 = 0.0832 | – | – | 1535
[2], x2 = 0.1451 | – | – | 1505
[2], x2 = 0.1881 | – | -3.94e-07 | –
[2], x2 = 0.2102 | – | – | 1475
[2], x2 = 0.2321 | – | -4.57e-07 | –
[2], x2 = 0.2918 | – | – | 1441
[2], x2 = 0.2967 | – | -5.47e-07 | –
[2], x2 = 0.3245 | – | -5.75e-07 | –
[2], x2 = 0.3581 | – | – | 1414
[2], x2 = 0.3834 | – | -6.36e-07 | –
[2], x2 = 0.4002 | – | – | 1399
[2], x2 = 0.4704 | – | -7.08e-07 | –
[2], x2 = 0.4981 | – | – | 1364
[2], x2 = 0.5181 | – | -7.32e-07 | –
[2], x2 = 0.5423 | – | -7.37e-07 | –
[2], x2 = 0.5638 | – | – | 1343
[2], x2 = 0.6112 | – | -7.45e-07 | –
[2], x2 = 0.6118 | – | – | 1328
[2], x2 = 0.6877 | – | -7.22e-07 | –
[2], x2 = 0.7148 | – | – | 1299
[2], x2 = 0.7414 | – | -6.82e-07 | –
[2], x2 = 0.7981 | – | – | 1277
[2], x2 = 0.8213 | – | -5.66e-07 | –
[2], x2 = 0.8412 | – | – | 1267
[2], x2 = 0.8974 | – | -3.81e-07 | –
[2], x2 = 0.9003 | – | – | 1253
[2], x2 = 0.9426 | – | -2.35e-07 | –
[2], x2 = 0.9628 | – | – | 1240
[3], x2 = 0.0701 | -0.12 | – | –
[3], x2 = 0.1765 | -0.284 | – | –
[3], x2 = 0.2379 | -0.366 | – | –
[3], x2 = 0.295 | -0.432 | – | –
[3], x2 = 0.3344 | -0.472 | – | –
[3], x2 = 0.3911 | -0.52 | – | –
[3], x2 = 0.435 | -0.575 | – | –
[3], x2 = 0.4901 | -0.572 | – | –
[3], x2 = 0.5521 | -0.582 | – | –
[3], x2 = 0.6276 | -0.568 | – | –
[3], x2 = 0.6982 | -0.528 | – | –
[3], x2 = 0.741 | -0.489 | – | –
[3], x2 = 0.8546 | -0.331 | – | –
[3], x2 = 0.9201 | -0.201 | – | –

CNc1ccccc1 [N-methylaniline]
[1]
Settings | mass density [kg/m3] | speed of sound [m/s] | vapor or sublimation pressure [kPa]
298.15 K | 982.4 | 1572 | –
308.15 K | – | – | 0.1067

Settings | vapor or sublimation pressure [kPa]
[1], 298.15 K, Closed cell (Static) method | 0.0667

CNc1ccccc1 [N-methylaniline] + C1CCOCC1
Settings | excess molar enthalpy [kJ/mol] | excess molar volume [m3/mol] | speed of sound [m/s]
[2], x2 = 0.0541 | – | – | 1509
[2], x2 = 0.0764 | – | -7.2e-08 | –
[2], x2 = 0.1321 | – | – | 1490
[2], x2 = 0.1416 | – | -1.25e-07 | –
[2], x2 = 0.1921 | – | -1.59e-07 | –
[2], x2 = 0.2316 | – | – | 1468
[2], x2 = 0.244 | – | -1.89e-07 | –
[2], x2 = 0.2811 | – | – | 1457
[2], x2 = 0.2905 | – | -2.1e-07 | –
[2], x2 = 0.3451 | – | -2.27e-07 | –
[2], x2 = 0.3612 | – | – | 1437
[2], x2 = 0.3984 | – | -2.37e-07 | –
[2], x2 = 0.4112 | – | – | 1424
[2], x2 = 0.4515 | – | -2.4e-07 | –
[2], x2 = 0.4932 | – | – | 1400
[2], x2 = 0.5224 | – | -2.34e-07 | –
[2], x2 = 0.5638 | – | – | 1377
[2], x2 = 0.613 | – | -2.1e-07 | –
[2], x2 = 0.6148 | – | – | 1360
[2], x2 = 0.6873 | – | -1.78e-07 | –
[2], x2 = 0.6919 | – | – | 1332
[2], x2 = 0.7418 | – | – | 1313
[2], x2 = 0.7531 | – | -1.44e-07 | –
[2], x2 = 0.8141 | – | – | 1287
[2], x2 = 0.8231 | – | -1.03e-07 | –
[2], x2 = 0.8992 | – | – | 1257
[2], x2 = 0.9191 | – | -4.5e-08 | –
[2], x2 = 0.9514 | – | – | 1239
[3], x2 = 0.0856 | -0.11 | – | –
[3], x2 = 0.1321 | -0.17 | – | –
[3], x2 = 0.1976 | -0.251 | – | –
[3], x2 = 0.2434 | -0.304 | – | –
[3], x2 = 0.3122 | -0.376 | – | –
[3], x2 = 0.3876 | -0.44 | – | –
[3], x2 = 0.4444 | -0.477 | – | –
[3], x2 = 0.4878 | -0.496 | – | –
[3], x2 = 0.5548 | -0.511 | – | –
[3], x2 = 0.6233 | -0.505 | – | –
[3], x2 = 0.6921 | -0.475 | – | –
[3], x2 = 0.7432 | -0.436 | – | –
[3], x2 = 0.8767 | -0.261 | – | –
[3], x2 = 0.9549 | -0.107 | – | –

Nc1ccccc1 [aniline]
[1]
Settings | mass density [kg/m3] | speed of sound [m/s] | vapor or sublimation pressure [kPa]
298.15 K | 1017.2 | 1635 | –
308.15 K | – | – | 0.12

Settings | vapor or sublimation pressure [kPa]
[1], 298.15 K, Closed cell (Static) method | 0.0933

Nc1ccccc1 [aniline] + C1CCOCC1
Settings | excess molar enthalpy [kJ/mol] | excess molar volume [m3/mol] | speed of sound [m/s]
[2], x2 = 0.0702 | – | -9.7e-08 | –
[2], x2 = 0.0912 | – | – | 1564
[2], x2 = 0.1516 | – | – | 1543
[2], x2 = 0.1767 | – | -2.45e-07 | –
[2], x2 = 0.2381 | – | -3.22e-07 | –
[2], x2 = 0.2414 | – | – | 1510
[2], x2 = 0.2952 | – | -3.84e-07 | –
[2], x2 = 0.299 | – | – | 1490
[2], x2 = 0.3347 | – | -4.2e-07 | –
[2], x2 = 0.3541 | – | – | 1470
[2], x2 = 0.3913 | – | -4.59e-07 | –
[2], x2 = 0.4354 | – | -4.8e-07 | –
[2], x2 = 0.4417 | – | – | 1438
[2], x2 = 0.4904 | – | -4.92e-07 | –
[2], x2 = 0.5312 | – | – | 1404
[2], x2 = 0.5525 | – | -4.87e-07 | –
[2], x2 = 0.5943 | – | – | 1379
[2], x2 = 0.628 | – | -4.56e-07 | –
[2], x2 = 0.6511 | – | – | 1357
[2], x2 = 0.6989 | – | -4.01e-07 | –
[2], x2 = 0.7344 | – | – | 1324
[2], x2 = 0.7412 | – | -3.59e-07 | –
[2], x2 = 0.8117 | – | – | 1294
[2], x2 = 0.8548 | – | -2.15e-07 | –
[2], x2 = 0.883 | – | – | 1267
[2], x2 = 0.9204 | – | -1.19e-07 | –
[2], x2 = 0.9413 | – | – | 1245
[2], x2 = 0.9812 | – | – | 1231
[3], x2 = 0.0545 | -0.0837 | – | –
[3], x2 = 0.1711 | -0.251 | – | –
[3], x2 = 0.2234 | -0.321 | – | –
[3], x2 = 0.2761 | -0.389 | – | –
[3], x2 = 0.3509 | -0.478 | – | –
[3], x2 = 0.4214 | -0.551 | – | –
[3], x2 = 0.5512 | -0.647 | – | –
[3], x2 = 0.5879 | -0.661 | – | –
[3], x2 = 0.6213 | -0.667 | – | –
[3], x2 = 0.6821 | -0.659 | – | –
[3], x2 = 0.7511 | -0.615 | – | –
[3], x2 = 0.8145 | -0.534 | – | –
[3], x2 = 0.8914 | -0.373 | – | –
[3], x2 = 0.9413 | -0.225 | – | –

C1CCOCC1 [tetrahydropyran]
[1]
Settings | mass density [kg/m3] | vapor or sublimation pressure [kPa]
298.15 K | 868.6 | –
308.15 K | – | 13.79

Settings | vapor or sublimation pressure [kPa]
[1], 298.15 K, Closed cell (Static) method | 9.533
